Reference: patent publication US9017692B2, “Antimicrobial agent, bacterial strain, biosynthesis, and methods of use” (priority 2011, dated 2015)

Key:
[1] = test system: L. monocytogenes OSY-8578; assay: Spot-on-lawn antimicrobial activity; type: cell-based, Listeria monocytogenes; settings: TSBYE
Protocol: (§1) Spot-on-lawn method [He, Z., et al., Appl. Environ. Microbiol., (2007) 73:168-178] was used for the bioassay of antimicrobial activity. Bacterial indicators were incubated at 37° C. for 24 h, except Pseudomonas putida, Clostridium difficile and methycillin resistant Staphylococcus aureus which were incubated for 48 h (Table 1). The indicator overlay was prepared by pouring 10 ml soft agar (seeded with 10 μL indicator culture) onto tryptose agar as basal medium in a petri dish. Purified antimicrobials were two-fold serially diluted and aliquots (10 μL each) were spotted onto the soft agar. The plates were incubated overnight and inspected for the presence of growth inhibition zones. Antimicrobial activity was expressed in arbitrary units (AU)/mL; this value is the reciprocal of the highest dilution displaying a zone of inhibition corresponding to 1 mL of the non-diluted antimicrobial preparation.
(§2) Purified paenibacterin was used for the antimicrobial spectrum test. Microorganisms tested for sensitivity to this compound included pathogenic (e.g., Salmonella Typhimurium, Escherichia coli O157:H7, Listeria monocytogenes, and Staphylococcus aureus) and non-pathogenic (e.g., Escherichia coli K-12, Pseudomonas putida, and Enterococcus faecalis) bacteria (Table 1).

[2] = test system: ECO.2276; assay: MIC, CLSI broth microdilution, Gram-negative clinical isolates; type: cell-based, Escherichia coli
Protocol: (§3) Plates were incubated at 35° C. for 24 h.
(§4) The activity of paenibacterin was also tested against clinical isolates of the following Gram-negative bacterial strains: four strains of the species Pseudomonas aeruginosa (PAE), three strains of the species Acinetobacter baumannii (ABA), two strains of the species Escherichia coli (ECO), and four strains of the species Klebsiella pneumoniae (KPN). Particularly, the strains of Gram-negative bacteria included polymyxin B-resistant (PMB-R) and polymyxin B-sensitive (PMB-S) strains of each above listed species. The MICs were determined using the above described CLSI broth microdilution method, in which the method was performed with both non-binding surface coated (NBS) and polystyrene (PS) 96-well plates (Tables 11 and 12, respectively). The MICs were generally lower in the NBS 96-well plates as compared to the PS 96-well plates.

[3] = test system: ATCC 25922 ECO.35; assay: as above; type: cell-based, Escherichia coli
Protocol: as §3, §4

[4] = Enzyme sensitivity test (residual antimicrobial activity, spot-on-lawn); type: physicochemical; settings: 10 h
Protocol: Crude extracts of Paenibacillus thiaminolyticus OSY-SE were tested for sensitivity to heat and pH change while purified antimicrobial compounds were used for enzyme sensitivity tests. For thermal stability test, crude extract solutions were exposed to 37° C., 55° C. (in incubators) or 80° C. (in a water bath) for 24 h or autoclaved at 121° C. for 5 minutes. For pH stability test, crude extract solutions were diluted with 25 mM phosphate buffer (pH 7.0) and adjusted to pH 3.0, 5.0 and 9.0, followed by incubation for 12 h. Samples were neutralized to pH 7.0 before the antimicrobial activity test. Enzyme sensitivity tests were performed in 25 mM phosphate buffer (pH 7.0) with trypsin (type I, 12705 U/mg), lipase (type I, 9 U/mg), pronase (6.31 U/mg), α-glucosidase (type I, 100U/1.93 mg), lysozyme (46400 U/mg) and in 25 mM phosphate buffer (pH 8.0) with polymyxin acylase (16 U/mg). All enzymes were purchased from Sigma (St. Louis, Mo.) except polymyxin acylase (Wako Chemicals USA, Inc., Richmond, Va.). Digesting solutions were prepared at concentration of 0.1 mg/mL for polymyxin acylase and 0.5 mg/mL for others. These mixtures of enzyme and antimicrobial compound (40 μL of final volume) were incubated at 37° C. for 10 h. Quantitative spot-on-lawn bioassay was used to measure antimicrobial activities after these treatments.

[5] = test system: Bacillus cereus ATCC14579; assay: MIC, CLSI broth microdilution, foodborne pathogens; type: cell-based
Protocol: as §3

[6] = test system: Escherichia coli O157:H7 EDL933; assay: MIC, CLSI broth microdilution, foodborne pathogens; type: cell-based
Protocol: as §3

[7] = test system: Yersinia enterocolitica; assay: MIC, CLSI broth microdilution, foodborne pathogens; type: cell-based
Protocol: as §3

[8] = test system: Listeria monocytogenes Scott A; assay: MIC, CLSI broth microdilution, foodborne pathogens; type: cell-based
Protocol: as §3

[9] = test system: L. innocua ATCC 33090; assay: Spot-on-lawn antimicrobial activity; type: cell-based, Listeria innocua; settings: TSBYE
Protocol: as §1, §2

[10] = test system: polymixin B-sensitive strains of Klebsiella pneumoniae; assay: MIC, Table 11; type: cell-based; settings: NBS plates
Protocol: as §3, §4

[11] = test system: L. monocytogenes; assay: Antimicrobial spectrum test; type: cell-based, Listeria monocytogenes; settings: gram-positive pathogens such as L. monocytogenes
Protocol: as §1, §2

[12] = test system: ABA.2232; assay: MIC, CLSI broth microdilution, Gram-negative clinical isolates; type: cell-based, Acinetobacter baumannii
Protocol: as §3, §4

[13] = test system: ABA.2315; assay: as above; type: cell-based, Acinetobacter baumannii
Protocol: as §3, §4

[14] = test system: ABA.1570; assay: as above; type: cell-based, Acinetobacter baumannii
Protocol: as §3, §4

[15] = test system: PMB-S, KPN.2461; assay: as above; type: cell-based, Klebsiella pneumoniae
Protocol: as §3, §4

[16] = test system: PMB-R, KPN.2463; assay: as above; type: cell-based, Klebsiella pneumoniae
Protocol: as §3, §4

[17] = test system: KPN.674; assay: as above; type: cell-based, Klebsiella pneumoniae
Protocol: as §3, §4

[18] = test system: KPN.2317; assay: as above; type: cell-based, Klebsiella pneumoniae
Protocol: as §3, §4

[19] = test system: S. enterica ser. Typhimurium DT 109; assay: Spot-on-lawn antimicrobial activity; type: cell-based, Salmonella enterica; settings: TSBYE
Protocol: as §1, §2

[20] = test system: S. enterica ser. Enteritidis; assay: Spot-on-lawn antimicrobial activity; type: cell-based, Salmonella enterica; settings: TSBYE
Protocol: as §1, §2

[21] = based on molecular weight of 1604 Da

Substance: paenibacterin
- Antimicrobial activity (AU/ml) [1]: 1600 AU/ml
- Minimum inhibitory concentration (MIC) ([2]; NBS 96-well plates): 8 µg/mL
- Minimum inhibitory concentration (MIC) ([2]; PS 96-well plates): 16 µg/mL
- Minimum inhibitory concentration (MIC) ([3]; ECO.35 (ATCC 25922), NBS 96-well plates): 8 µg/mL
- Minimum inhibitory concentration (MIC) ([3]; ECO.35, PS 96-well plates): 16 µg/mL
- Antimicrobial activity after enzyme treatment ([4]; lipase 0.5 mg/mL, pH 7.0, 37° C.): resistant
- Antimicrobial activity after enzyme treatment ([4]; lysozyme 0.5 mg/mL, pH 7.0, 37° C.): resistant
- Antimicrobial activity after enzyme treatment ([4]; polymyxin acylase 0.1 mg/mL, pH 8.0, 37° C.): activity was lost
- Antimicrobial activity after enzyme treatment ([4]; pronase 0.5 mg/mL, pH 7.0, 37° C.): activity was lost
- Antimicrobial activity after enzyme treatment ([4]; trypsin 0.5 mg/mL, phosphate buffer pH 7.0, 37° C.): resistant
- Antimicrobial activity after enzyme treatment ([4]; α-glucosidase 0.5 mg/mL, pH 7.0, 37° C.): resistant
- Minimum inhibitory concentration (MIC) Average ([5]; average of three replicates): 15.6 µg/mL
- Minimum inhibitory concentration (MIC) Average [5, 21]: 9.74 µM
- Minimum inhibitory concentration (MIC) Average ([6]; average of three replicates): 7.81 µg/mL
- Minimum inhibitory concentration (MIC) Average [6, 21]: 4.87 µM
- Minimum inhibitory concentration (MIC) Average ([7]; average of three replicates): 3.26 µg/mL
- Minimum inhibitory concentration (MIC) Average [7, 21]: 2.03 µM
- Minimum inhibitory concentration (MIC) Average ([8]; average of three replicates): 1.95 µg/mL
- Minimum inhibitory concentration (MIC) Average [8, 21]: 1.22 µM
- Antimicrobial activity (AU/ml) [9]: 1600 AU/ml
- MIC [10]: 8 µg/mL
- Antimicrobial activity (in words) [11]: good activity
- Minimum inhibitory concentration (MIC) ([12]; NBS 96-well plates): 2 µg/mL
- Minimum inhibitory concentration (MIC) ([12]; PS 96-well plates): 32 µg/mL
- Minimum inhibitory concentration (MIC) ([13]; NBS 96-well plates): 2 µg/mL
- Minimum inhibitory concentration (MIC) ([13]; PS 96-well plates): 32 µg/mL
- Minimum inhibitory concentration (MIC) ([14]; NBS 96-well plates): 2 µg/mL
- Minimum inhibitory concentration (MIC) ([14]; PS 96-well plates): 32 µg/mL
- Minimum inhibitory concentration (MIC) ([15]; KPN.2461 (PMB-S), NBS 96-well plates): 4 µg/mL
- Minimum inhibitory concentration (MIC) ([15]; KPN.2461, PS 96-well plates): 32 µg/mL
- Minimum inhibitory concentration (MIC) ([16]; KPN.2463 (PMB-R), NBS 96-well plates): 8 µg/mL
- Minimum inhibitory concentration (MIC) ([16]; KPN.2463, PS 96-well plates): 32 µg/mL
- Minimum inhibitory concentration (MIC) ([17]; NBS 96-well plates): 8 µg/mL
- Minimum inhibitory concentration (MIC) ([17]; PS 96-well plates): 32 µg/mL
- Minimum inhibitory concentration (MIC) ([18]; NBS 96-well plates): 64 µg/mL
- Minimum inhibitory concentration (MIC) ([18]; PS 96-well plates): 64 µg/mL
- Antimicrobial activity (AU/ml) [19]: 400 AU/ml
- Antimicrobial activity (AU/ml) [20]: 800 AU/ml
